# What was measured:
# [1] = tested on: Mus musculus; assay: Inhibition of HCl/ethanol- induced gastric damage in Mus musculus (mouse) at 30 mg/kg; assay type: functional; details: Stomach
# [2] = tested on: Leishmania amazonensis; assay: Antiparasitic activity against Leishmania amazonensis MHOM/BR /77/LTB0016 promastigote at 16.8 uM; assay type: functional
# [3] = tested on: Leishmania amazonensis; assay: Antiparasitic activity against Leishmania amazonensis MHOM/BR /77/LTB0016 after 24 hr; assay type: functional, organism-based; details: MHOM/BR /77/LTB0016, 24 h
# [4] = tested on: HL-60; assay: Cytotoxicity against Homo sapiens (human) HL60 cells; assay type: functional, cell-based
# [5] = tested on: HEp-2; assay: Cytotoxicity against Homo sapiens (human) Hep2 cells; assay type: cell-based
# [6] = Cytotoxicity against Macaca mulatta (Rhesus monkey) FRhK4 cells; assay type: cell-based; details: FRhK-4
# [7] = tested on: K562; assay: Cytotoxicity against Homo sapiens (human) K562 cells; assay type: functional, cell-based
# [8] = tested on: NCI-H460; assay: Cytotoxicity against Homo sapiens (human) NCI-H460 cells; assay type: functional
# [9] = tested on: HCT-116; assay: Cytotoxicity against Homo sapiens (human) HCT116 cells after 24 to 48 hr by MTT assay; assay type: functional, cell-based
# [10] = Cytotoxicity against Mus musculus (mouse) EAT cells; assay type: functional, cell-based
# [11] = tested on: Trypanosoma cruzi; assay: Antitrypanosomal activity against trypomastigote of Trypanosoma cruzi Y infected in albino mouse assessed as reduction in parasitemia at 100 mg/kg, ip for 7 days; assay type: functional; details: 168 h, route intraperitoneal
# [12] = Cytotoxicity against Macaca mulatta (Rhesus monkey) MA104 cells; assay type: cell-based
# [13] = tested on: Vero; assay: Cytotoxicity against […] Vero cells; assay type: cell-based; details: Chlorocebus sabaeus
# [14] = tested on: Enterovirus C; assay: Antiviral activity against Enterovirus C (Poliovirus) infected HeLa cells at 0.063 ug/ml; assay type: functional
# [15] = tested on: Mycobacterium tuberculosis; assay: Antimycobacterial activity against Mycobacterium tuberculosis H37Rv; assay type: functional
# [16] = tested on: DLD-1; assay: Cytotoxicity against Homo sapiens (human) DLD1 cells after 24 to 48 hr by MTT assay; assay type: functional, cell-based
# [17] = tested on: Caco-2; assay: Cytotoxicity against Homo sapiens (human) Caco2 cells after 24 to 48 hr by MTT assay; assay type: functional, cell-based
# [18] = tested on: KM12; assay: Cytotoxicity against Homo sapiens (human) KM12 cells; assay type: functional
# [19] = tested on: V79; assay: Cytotoxicity against Cricetulus griseus V79 cells; assay type: functional, cell-based
# [20] = tested on: U-937; assay: Cytotoxicity against Homo sapiens (human) U937 cells; assay type: functional, cell-based
# [21] = tested on: MOLT-4; assay: Cytotoxicity against Homo sapiens (human) MOLT4 cells; assay type: functional
# [22] = Cytotoxicity against Homo sapiens (human) Lymphocyte; assay type: cell-based
# [23] = tested on: Mus musculus; assay: Inhibition of HCl/ethanol- induced gastric damage in Mus musculus (mouse) at 10 mg/kg, po, sd; assay type: functional; details: Stomach
# [24] = tested on: Leishmania amazonensis; assay: Antiparasitic activity against Leishmania amazonensis MHOM/BR /77/LTB0016 promastigote at 460.8 uM; assay type: functional
# [25] = tested on: HT-29; assay: Cytotoxicity against Homo sapiens (human) HT-29 cells after 24 to 48 hr by MTT assay; assay type: functional, cell-based
smiles,measurement,setting,value
Cc1c(OCC(F)(F)F)ccnc1C[S+]([O-])c1nc2ccccc2[nH]1 (configuration not stated) [LANSOPRAZOLE],inhibition in vivo at 30 mg/kg,[1],63%
N=C(N)c1ccc(OCCCCCOc2ccc(C(=N)N)cc2)cc1 [PENTAMIDINE],inhibition at 16.8 µM,[2],100%
same,EC50,[3],460 nM
O=C1NC(c2c[nH]c3ccc(O)cc23)=C/C1=C1\C(=O)Nc2ccccc21 [VIOLACEIN],IC50,[4],800 nM
same,IC50,[5],2200 nM
same,IC50,[6],2200 nM
same,IC50,[7],< 1000 nM
same,GI50,[8],30 nM
same,IC50,[9],> 1500 nM
same,IC50,[10],5000 nM
same,inhibition in vivo at 100 mg/kg,[11],4%
same,IC50,[12],2200 nM
same,IC50,[13],2200 nM
same,inhibition at 0.063 µg/mL,[14],56%
same,MBC,[15],128 µg/mL
same,MIC,[15],64 µg/mL
same,IC50,[16],> 1500 nM
same,IC50,[17],> 1500 nM
same,GI50,[18],30 nM
same,IC50,[19],5000 nM
same,IC50,[20],< 1000 nM
same,GI50,[21],30 nM
same,IC50,[22],10000 nM
same,EC50,[3],4300 nM
same,inhibition in vivo at 10 mg/kg,[23],85%
same,inhibition at 460.8 µM,[24],100%
same,IC50,[25],> 1500 nM

# Source: ChEMBL document CHEMBL3046567, “Potential applications of violacein: a microbial pigment” (Med Chem Res, 2012)
